For data set [1] the following is noted: in vivo; cited from earlier work.
Data set [2] can be described thus: Dissolution profile tests. Type of data set: physicochemical.

Molecules are shown by their SMILES.

One may read the Cmax as the maximum level reached in the sampled fluid or tissue.

Consider `CC(C)Cc1ccc(C(C)C(=O)O)cc1` (centres unmarked) [Ibuprofen], for which, in data set [1], the AUC is 70 μ · h/mL, the Bioavailability was 80%, the Cmax was 20 µg/mL and the tmax is given as 2 h.
Consider `Cc1ncc(CO)c(CO)c1O.Cl` [pyridoxine hydrochloride], for which the figures for the “% dissolved” value in data set [2] (t 0 min), in data set [2] (t 10 min) and in data set [2] (t 60 min) were 0.00%, 95.38% and 90.54%, respectively.
For the compound `Cc1cnc(NC(=O)C2=C(O)c3ccccc3S(=O)(=O)N2C)s1` [Meloxicam], in data set [1], the AUC is 28.8 μ · h/mL, the maximum concentration (Cmax) is 1.62 ± 0.20 µg/mL and the tmax is 3.0 to 6.0 h.
Turning to `O=C(O)Cc1ccccc1Nc1c(Cl)cccc1Cl` [Diclofenac], in data set [1], the AUC was 4.4 ± 0.08 μ · h/mL, the Bioavailability is 50-60%, the Cmax was 0.1 to 2.2 µg/mL and the t1/2 is 1.0 to 2.0 h. The tmax in data set [1] was 1.98 h.
In the case of `O=C(c1ccccc1)c1ccc2n1CCC2C(=O)O` (centres unmarked) [Ketorolac], in data set [1], the AUC is given as 4.81 μ · h/mL, the Bioavailability is reported as 80%, the Cmax is 5.42 µg/mL and the t1/2 is 3.0 to 6.0 h. In addition, the tmax in data set [1] is 0.33 to 1.0 h.

These data come from patent US12653798B2, “Fixed combination medicine for the control and management of neuropathic pain” (LABORATORIOS SILANES S.A. DE C.V., priority 2020, dated 2026).
